# Experimental data reported in publication PMC7395068, “The evolution of strategies to minimise the risk of human drug-induced liver injury (DILI) in drug discovery and development” (Archives of Toxicology, 2020).
# Where two headings read alike, the source gives them in different places.
# Columns and labels:
# hLiMTs [1] = assay: Combined HCI (HCS) and cellular ATP 3D assay in hLiMTs
# [2] = cited from earlier work
# [3] = ref Chen 2011; cited from earlier work
# [4] = cited from earlier work; remark: listed apart in the source
# PHH = conditions: cited from earlier work
# human hepatocytes = conditions: cited from earlier work
# HepG2 cells [5] = conditions: In vitro Assay; ref Tolosa 2012; cited from earlier work
# HepaRG spheroids = assay: Combined HCI (HCS) and cellular ATP 3D assay in HepaRG spheroids; conditions: for AC50 / minimal effective concentration: Homo sapiens
# hLiMTs [6] = conditions: cited from earlier work
# [7] = tested on: primary human hepatocytes, NIH3T3 fibroblasts, BSEP, CYP3A4; conditions: cited from earlier work
# Upcyte human hepatocytes = conditions: In vitro Assay; ref Tolosa 2019; cited from earlier work
# rBsep = conditions: In vitro Assay; ref Dawson 2012; cited from earlier work
# [8] = tested on: THLE-Null and THLE-3A4 cells; conditions: In vitro Assay; ref Gustafsson 2014; cited from earlier work
# [9] = tested on: THLE or HepG2 cells, isolated mitochondria, BSEP; conditions: cited from earlier work
# [10] = read-out: Human plasma Cmax; total plasma Cmax.tot, median of 9 literature references; cited from earlier work
# [11] = tested on: HepG2 cells, primary human hepatocytes; conditions: In vitro Assay; ref Garside 2014; cited from earlier work
# [12] = plasma free fraction; cited from earlier work
# [13] = tested on: HepG2 C3A spheroid, BSEP, Glu/Gal in HepG2 cells, bioactivation; conditions: cited from earlier work
# PHH spheroids = conditions: cited from earlier work
# HepG2 cells [14] = conditions: cited from earlier work
# [15] = Plasma free fraction (fu) and unbound Cmax (Cmax,u); assay type: in vitro ADME, human; conditions: unbound plasma Cmax
# Protocol: The prediction of DILI severity was evaluated further using the 3D combined HCI assays using plasma-free fraction. The majority of fu values were obtained from literature, when unavailable in-house prediction was utilised. Unbound plasma Cmax concentrations (Cmax,u) were derived by multiplying total plasma Cmax with the corresponding free fraction (fu) for each compound.
# HepG2 cells [16] = conditions: cited from earlier work; remark: listed apart in the source
# [17] = Microtissue model structural based (HCI), combined HCS and ATP, MEC < 25 × Cmax.tot cut-off
# [18] = In vitro Assay, ref Proctor 2017
# [19] = In vitro Assay, ref Schadt 2015
# [20] = Modeled in vitro assays (cytotoxicity, mitochondrial dysfunction, BSEP), ref Aleo et al. 2019
# [21] = In vitro Assay, ref Persson 2013
compound,measurement,setting,value
"CN(Cc1cnc2nc(N)nc(N)c2n1)c1ccc(C(=O)N[C@@H](CCC(=O)O)C(=O)O)cc1 [methotrexate, reference compound]","DILI prediction hLiMTs, HCI alone","hLiMTs [1]; HCS endpoints only, 25 × Cmax.tot cut-off",detection
same,AC50,"hLiMTs [1]; Homo sapiens, read-out: HCS endpoint AC50",16900 nM
same,minimal effective concentration,"hLiMTs [1]; Homo sapiens, read-out: HCS endpoint MEC",0.703 µM
same,DILI prediction hLiMTs (HCS-MEC),hLiMTs [1]; [17],+VE (MEC < 25 × Cmax.tot cut-off)
same,"DILI prediction hLiMTs, ATP alone","hLiMTs [1]; cellular ATP only, 25 × Cmax.tot cut-off",unpredicted
same,hLiMTs <25x Avg Cmax ATP,"hLiMTs [1]; hLiMTs, ATP endpoint, cut-off <25x Avg Cmax",-ve
same,hLiMTs <100x Avg Cmaxu ATP,"hLiMTs [1]; hLiMTs, ATP endpoint, cut-off <100x Avg Cmaxu",-ve
same,hLiMTs <25x Avg Cmax HCS,"hLiMTs [1]; hLiMTs, HCS endpoints, cut-off <25x Avg Cmax",+ve
same,hLiMTs <100x Avg Cmaxu HCS,"hLiMTs [1]; hLiMTs, HCS endpoints, cut-off <100x Avg Cmaxu",+ve (<100x Avg Cmaxu)
same,hLiMTs <25x Avg Cmax All,"hLiMTs [1]; hLiMTs, all endpoints (ATP and HCS), cut-off <25x Avg Cmax",+ve
same,hLiMTs Cmax max All,"hLiMTs [1]; hLiMTs, all endpoints, Cmax max used",+ve
same,hLiMTs Cmax min All,"hLiMTs [1]; hLiMTs, all endpoints, Cmax min used",-ve
same,hLiMTs <10 uM All,"hLiMTs [1]; hLiMTs, all endpoints, cut-off <10 uM",+ve (<10 uM)
same,hLiMTs <100x Avg Cmaxu All,"hLiMTs [1]; hLiMTs, all endpoints, cut-off <100x Avg Cmaxu",+ve (<100x Avg Cmaxu)
same,Assigned DILI category,"[2]; Chen et al. 2016 or literature alignment, ref Chen et al. 2016",3
same,In vivo DILI,[2]; […],+VE
same,In vivo DILI,[2]; ref Aleo 2019,+VE
same,In vivo DILI,[2]; ref Dawson 2012,+VE
same,In vivo DILI,[2]; ref Garside 2014,+VE
same,In vivo DILI,[2]; ref Gustafsson 2014,+VE
same,In vivo DILI,[2]; ref O'Brien 2006,+VE
same,In vivo DILI,[2]; ref Persson 2013,+VE
same,In vivo DILI,[2]; ref Proctor 2017,+VE
same,In vivo DILI,[2]; ref Schadt 2015,+VE
same,In vivo DILI,[2]; ref Tolosa 2012,+VE
same,In vivo DILI,[2]; ref Tolosa 2019,+VE
same,In vivo DILI,[2]; ref Vorrink 2018,+VE
same,In vivo DILI,[2]; ref Williams 2019,+VE
same,In vivo DILI,[2]; ref Xu 2008,+VE
same,DILI Score (FDA) (1-8),[3],3
same,DILI severity category (Chen et al. [2016]),"[4]; LTKB DILIrank category, ref Chen et al. 2016",Most
same,DILI severity category (Chen 2016),"[4]; human DILI classification, LTKB DILIrank, ref Chen et al. 2016",Most
same,DILI severity category,"[4]; human DILI severity, ref Chen et al.",Most
same,"DILI +VE (5-8), DILI -VE (-4)",[4]; ref Chen 2016,+VE
same,DILI severity category,[4]; ref Chen 2016,vMost-DILI-Concern
same,"PHH/100uM, Proctor (2017)","PHH; 2D PHH, ATP, IC50 threshold 100 µM, ref Proctor et al. 2017",-VE
same,PHH ATP <100uM,PHH; [18],-VE
same,Structural based (HCI),"human hepatocytes; In vitro Assay, ref Xu 2008",-VE
same,"DILI in vitro assay prediction, Xu (2008)","human hepatocytes; Structural based (HCI), human hepatocytes, ref Xu et al. 2008",-VE
same,Structural based (HCI),HepG2 cells [5],+VE
same,HepaRG <25x Avg Cmax ATP,"HepaRG spheroids; HepaRG, ATP endpoint, cut-off <25x Avg Cmax",+ve
same,HepaRG <100x Avg Cmaxu ATP,"HepaRG spheroids; HepaRG, ATP endpoint, cut-off <100x Avg Cmaxu",+ve (<100x Avg Cmaxu)
same,HepaRG <25x Avg Cmax HCS,"HepaRG spheroids; HepaRG, HCS endpoints, cut-off <25x Avg Cmax",+ve
same,HepaRG <100x Avg Cmaxu HCS,"HepaRG spheroids; HepaRG, HCS endpoints, cut-off <100x Avg Cmaxu",+ve (<100x Avg Cmaxu)
same,HepaRG <25x Avg Cmax All,"HepaRG spheroids; HepaRG, all endpoints (ATP and HCS), cut-off <25x Avg Cmax",+ve
same,HepaRG Cmax max All,"HepaRG spheroids; HepaRG, all endpoints, Cmax max used",+ve
same,HepaRG Cmax min All,"HepaRG spheroids; HepaRG, all endpoints, Cmax min used",+ve
same,HepaRG <10 uM All,"HepaRG spheroids; HepaRG, all endpoints, cut-off <10 uM",+ve (<10 uM)
same,HepaRG <100x Avg Cmaxu All,"HepaRG spheroids; HepaRG, all endpoints, cut-off <100x Avg Cmaxu",+ve (<100x Avg Cmaxu)
same,AC50,"HepaRG spheroids; HepaRG, read-out: ATP endpoint AC50",200 nM
same,minimal effective concentration,"HepaRG spheroids; HepaRG, read-out: ATP endpoint MEC",0.2 µM
same,AC50,"HepaRG spheroids; HepaRG, read-out: HCS endpoint AC50",200 nM
same,minimal effective concentration,"HepaRG spheroids; HepaRG, read-out: HCS endpoint MEC",0.2 µM
same,DILI prediction HepaRG spheroids (HCS-MEC),HepaRG spheroids; [17],+VE (MEC < 25 × Cmax.tot cut-off)
same,hLiMTs ATP <100uM,hLiMTs [6]; [18],-VE
same,"hLiMTs/100uM, Proctor (2017)","hLiMTs [6]; hLiMTs, ATP, IC50 threshold 100 µM, ref Proctor et al. 2017",-VE
same,"DILI in vitro assay prediction, Schadt (2015)","[7]; BSEP & Metabolism based, ref Schadt et al. 2015",-VE
same,Cellular toxicity (3T3 cells),[7]; [19],-VE
same,GSH adduct HML,[7]; [19],-VE
same,Hepatocyte cellular toxicity,[7]; [19],-VE
same,MitoTox 3T3,[7]; [19],-VE
same,TDI CYP3A4,[7]; [19],-VE
same,hBSEP inhibition,[7]; [19],-VE
same,Upcytes multi donor assay 14day data,Upcyte human hepatocytes,+VE
same,Inhibition of rBsep cutoff<1& cmax u>.2,rBsep,-VE
same,Inhibition of rBsep cutoff<3,rBsep,-VE
same,THLE-Null,[8],-VE
same,Partition Hybrid HRM Score,"[9]; In vitro Assay, ref Aleo 2019",+VE
same,Ro2 Hybrid HRM Score,"[9]; In vitro Assay, ref Aleo 2019",+VE
same,"Partition Hybrid HRM Score ≥4, Aleo (2019)",[9]; [20],+VE (Partition Hybrid HRM Score ≥4)
same,"Partition Hybrid HRM Score ≥8, Aleo (2019)",[9]; [20],-VE
same,"Rule of Two hybrid HRM Score ≥3, Aleo (2019)",[9]; [20],+VE (Rule of Two hybrid HRM Score ≥3)
same,"Rule of Two hybrid HRM Score ≥8, Aleo (2019)",[9]; [20],-VE
same,Cmax,[10],4.63 µM
same,Cluster 1-6 +VE Assay,[11],-VE
same,fu,[12],0.500
same,"Bayesian Machine Learning DILI prediction, Williams (2019)","[13]; Bayesian modeling, ref Williams et al. 2019",+VE
same,Bayesian Machine Learning,"[13]; In vitro Assay, ref Williams 2019",+VE
same,hLiMTs ATP <20 x Cmax,"PHH spheroids; In vitro Assay, ref Vorrink 2018",+VE (IC20 < 20 × Cmax.tot cut-off)
same,"DILI in vitro assay prediction, Vorrink (2018)","PHH spheroids; PHH spheroids, ATP, 14 days, IC20 < 20 × Cmax.tot, ref Vorrink et al. 2018",+VE (IC20 < 20 × Cmax.tot cut-off)
same,Cluser analysis,HepG2 cells [14]; [21],-VE
same,Structural based (HCI),HepG2 cells [14]; [21],-VE
same,"DILI in vitro assay prediction, Persson (2013)","HepG2 cells [14]; Structural based (HCI), HepG2, ref Persson et al. 2013",-VE
same,"Human plasma Cmax,u",[15],2.315 µM
same,Structural based (HCI),"HepG2 cells [16]; In vitro Assay, ref O'Brien 2006",+VE
same,"DILI in vitro assay prediction, O'Brien (2006)","HepG2 cells [16]; Structural based (HCI), HepG2, ref O'Brien et al. 2006",+VE (lowest HCI endpoint IC50 (or in the absence of dose–response < 100 µM) < 30 × total human plasma exposure levels (Cmax.tot))
